Test results reported in patent US20240165074A1, “COMPOSITION OF THE PHYTOCOMPOUNDS INTENDED TO ENHANCE CYTOTOXIC ACTIVITY IN THE TREATMENT OF ACUTE LYMPHOBLASTIC LEUKEMIA” (GDANSKI UNIWERSYTET MEDYCZNY, priority 2021, published 2024).
Read-outs that look alike come from different tables or passages of the source.

Columns and labels:
[1] = system: MOLT-4 (the line of human ALL leukemia); test: MTT viability test on MOLT-4 cells; format: cell-based; conditions: for time after which viability of MOLT-4 neoplastic cells was reduced: bioavailable dose (1×), MTT; for impact on viability of MOLT-4 cells: even at doses attainable exclusively in vitro (2×)
Protocol: (§1) 1. Viability Test Comprising the Use of a Test Cell Line (Cultures in the Presence of Individual Phytochemicals or their Mix) and the Control Line
(§2) The test is based on an assessment of the enzymatic activity of mitochondria using MTT, 3-(4,5-Dimethylthiazol-2-yl)-2,5-diphenyltetrazolium) bromide. Live and metabolically active cells reduce MTT to formazan crystals. In the test, a 96-well plate was seeded with […] per well in the volume of 50 μl of standard culture medium, followed by the addition of serial dilutions of the analysed compounds in the volume of 50 μl of the culture medium to obtain the final volume of 100 μl. An identical quantity of the solvent without the analysed phytocompounds was added to the control wells. The phytocompounds were stored dissolved in 100% DMSO, and therefore each dilution and the culture media added for control were supplemented with DMSO up to the non-toxic final concentration of 0.05%. The viability of the cells was assessed after a specific incubation time (24-, 48-, or 72-hours) by adding 20 μl of the yellow MTT solution to each well, and the colorimetric conversion of MTT into purple formazan crystals was assessed after 2-3 hours of incubation by dissolving the crystals with acidic isopropanol and taking a spectrophotometric measurement at the wavelength of 570 nm.
The measurements of cell viability with the application of this assay were performed on the following lines: MOLT-4 (the line of human ALL leukemia, a standard cell line used to assess the effects of pharmaceutical compounds on this type of leukemias) and BJ (human foreskin fibroblasts, primary cells grown in a short-term culture).

[2] = defines dose 1×; cited from earlier work
[3] = system: BJ (human foreskin fibroblasts); test: MTT viability test on BJ control cells; format: cell-based; conditions: 0.5×, 1×, 2×; 24 and 72 hours (FIG. 2)
Protocol: as §1
as §2, with “nm. […]” for “nm.”

Row | Compound | cytotoxicity to MOLT-4 cells [1] | time after which viability of MOLT-4 neoplastic cells was reduced ([1]; single compound) [h] | maximum level of bioavailability of the compound in the blood [2] [µg/mL] | viability of BJ cells [3] | time after which the biological effect (reduced MOLT-4 viability) was attained ([1]; dose 0.5×) [hours] | cytotoxicity to MOLT-4 cells ([1]; single compound, dose 2×) | impact on viability of MOLT-4 cells ([1]; single compound)
1 | COc1cc(/C=C/C(=O)CC(=O)/C=C/c2ccc(O)c(OC)c2)ccc1O [curcumin] | relatively highly cytotoxic | 72 | 2.25 |  |  |  | 
2 | O=c1c(-c2ccc(O)cc2)coc2cc(O)cc(O)c12 [genistein] |  | 48 | 3 | do not decrease the viability | 72 | relatively highly cytotoxic | 
3 | O=c1c(O)c(-c2ccc(O)c(O)c2)oc2cc(O)cc(O)c12 [quercetin] |  |  | 1.5 |  |  |  | did not demonstrate any impact on the viability
4 | Oc1ccc(C=Cc2cc(O)cc(O)c2)cc1 [resveratrol] |  |  | 0.5 |  |  |  | did not demonstrate any impact on the viability
